Results reported in patent US9637490B2, “Antifungal 5,6-dihydro-4-[(difluoroethyl)phenyl]-4H-pyrrolo[1,2-α][1,4]benzodiazepine and 4-(difluoroethyl)phenyl-6H-pyrrolo[1,2-α][1,4]benzodiazepine derivatives” (Janssen Pharmaceutica NV, priority 2010, dated 2017).

What was measured:
[1] = test system: Trichophyton rubrum B68183; assay: Antifungal activity in vitro (resazurin susceptibility screen), Inf. C; format: cell-based; settings: 27 °C, 7 days, resa time 24 hours; for IC50: Trichophyton rubrum, B68183, Trichophyton rubrum B68183; for pIC50 Inf. C: Trichophyton rubrum B68183
Procedure: (§1) The standard susceptibility screen was performed in 96-well plates (U-bottom, Greiner Bio-One). Serial dilutions (2-fold or 4-fold) of 20 mM compound stock solutions were made in 100% DMSO, followed by an intermediate dilution step in water. These serial dilutions (10 μl) were then spotted onto test-plates that could be stored in the dark at 4° C. for a maximum period of 2 weeks. An adequate broad dose-range was included with 64 μM as the highest in-test concentration. The culture medium RPMI-1640 was supplemented with L-glutamine, 2% glucose and buffered with 3-(N-morpholino)-propanesulfonic acid (MOPS) at pH 7.0±0.1. The different fungal species/isolates (Table 3a) were cryopreserved and 1/1000 diluted in medium just prior to use. A standard inoculum of 200 μl containing 10^3 colony-forming unit (cfu) was then added to each well. A positive control (100% growth=fungal culture without antifungal) and a negative control (0% growth=RPMI-MOPS medium) were included on each plate. Optimal incubation time and temperature were dependent on the fungal species and vary from 24 h for yeasts (37° C.) to one week or more for dermatophytes (27° C.). Inhibition of fungal growth was measured after adding 10 μl of 0.005% (w/v) resazurin (Sigma Aldrich) to each well, based on the principle that living cells convert the non-fluorescent blue resazurin into the pink and fluorescent resorufin, allowing fluorimetric reading (λhd ex 550 nm and μem 590 nm) after an additional incubation period (‘resa’ time mentioned in Table 3a). [table]

[2] = test system: Candida parapsilosis B66126; assay: Antifungal activity in vitro (resazurin susceptibility screen), Inf. D; format: cell-based; settings: 37 °C, 24 hours, resa time 4 hours; for IC50: Lodderomyces parapsilosis, B66126, Candida parapsilosis B66126; for pIC50 Inf. D: Candida parapsilosis B66126
Procedure: as §1

Microsporum canis B68128 = assay: Antifungal activity in vitro (resazurin susceptibility screen), Inf. B; format: cell-based; settings: 27 °C, 9 days, resa time 24 hours; for IC50: Microsporum canis, B68128, Microsporum canis B68128; for pIC50 Inf. B: Microsporum canis B68128
Procedure: as §1

[3] = test system: Aspergillus fumigatus B42928; assay: Antifungal activity in vitro (resazurin susceptibility screen), Inf. E; format: cell-based; settings: 27 °C, 48 hours, resa time 17 hours; for IC50: Aspergillus fumigatus, B42928, Aspergillus fumigatus B42928; for pIC50 Inf. E: Aspergillus fumigatus B42928
Procedure: as §1

[4] = test system: Cryptococcus neoformans B66663; assay: Antifungal activity in vitro (resazurin susceptibility screen), Inf. F; format: cell-based; settings: 37 °C, 24 hours, resa time 4 hours; for IC50: Cryptococcus neoformans, B66663, Cryptococcus neoformans B66663; for pIC50 Inf. F: Cryptococcus neoformans B66663
Procedure: as §1

[5] = test system: Sporothrix schenkii B62482; assay: Antifungal activity in vitro (resazurin susceptibility screen), Inf. A; format: cell-based; settings: 27 °C, 4 days, resa time 24 hours; for IC50: Sporothrix, B62482, Sporothrix schenkii B62482; for pIC50 Inf. A: Sporothrix schenkii B62482
Procedure: as §1

[6] = test system: Trichophyton mentagrophytes B70554; assay: Antifungal activity in vitro (resazurin susceptibility screen), Inf. G; format: cell-based; settings: 27 °C, 7 days, resa time 24 hours; for IC50: Trichophyton mentagrophytes, B70554, Trichophyton mentagrophytes B70554; for pIC50 Inf. G: Trichophyton mentagrophytes B70554
Procedure: as §1

Rhizopus oryzae IHEM5223 = assay: Antifungal activity in vitro (resazurin susceptibility screen), Inf. J; format: cell-based; settings: 37 °C, 24 hours, resa time 6 hours; for IC50: Rhizopus arrhizus
Procedure: as §1

[7] = test system: Scedosporium prolificans IHEM21157; assay: Antifungal activity in vitro (resazurin susceptibility screen), Inf. I; format: cell-based; settings: Lomentospora prolificans, 37 °C, 48 hours, resa time 17 hours
Procedure: as §1

[8] = test system: Scedosporium apiospermum IHEM3817; assay: Antifungal activity in vitro (resazurin susceptibility screen), Inf. H; format: cell-based; settings: 37 °C, 48 hours, resa time 17 hours; for IC50: Scedosporium apiospermum, IHEM3817, Scedosporium apiospermum IHEM3817
Procedure: as §1

[9] = test system: Rhizomucor miehei IHEM13391; assay: Antifungal activity in vitro (resazurin susceptibility screen), Inf. K; format: cell-based; settings: 37 °C, 48 hours, resa time 17 hours; for IC50: Rhizomucor miehei, IHEM13391, Rhizomucor miehei IHEM13391
Procedure: as §1

[10] = test system: Mucor circinelloides IHEM21105; assay: Antifungal activity in vitro (resazurin susceptibility screen), Inf. L; format: cell-based; settings: 27 °C, 48 hours, resa time 17 hours
Procedure: as §1

[11] = test system: Microsporum canis (strain B68128); assay: Test D.4.1: activity against M. canis in guinea-pigs after oral treatment for 7 consecutive days; format: in vivo; parameters: key to semi-quantitative lesion score (mean): lesion score 0–3.5 by severity and size of lesion; settings: oral 10 mg/kg once daily for 7 days
Procedure: The animals used in the tests described below were female Guinea pigs (Duncan-Hartley, Charles River, 200 g). These animals were kept in groups of 2 or 3 in cages of 56×33×20 cm^3. Food pellets (Carfil Quality) and water were available ad libitum in addition to a small daily amount of hay. Standard husbandry conditions were adopted: room temperature: 22° C., humidity level: 60% and a day-night cycle of 12 h.
For the preparation of inoculums, Microsporum canis (strain B68128) was grown on Sabouraud Dextrose Agar (SDA) plates for at least one week (7-10 days) before infection (27° C.). On the day of infection, spores were harvested by adding 4-5 ml sterile water on the plate and suspending the infectious material with a bend Pasteur pipette. From the recollected fluid, 10 μl was added to a KOVA counting chamber for determination of the number of spores in 1 square (average of several squares). If needed, additional dilutions (10× or 100×) were prepared. The average number of spores in one square×dilution×90.000=cfu/ml. An inoculum of 1×10^7 cfu/ml was prepared in a honey-water mixture (50%-50%).
In the tests described below, semi-quantitative lesion scores were given based on different clinical parameters. Scores between 0 and 3.5 were assigned based on the severity and size of the lesion. The criteria are listed in detail in Table 6.
The dorsum of the guinea pigs was shaved and further depilated for 3 minutes with Veet® creme before scarification with a steel brush. An inoculum of 10^6 cfu in 150 μl (75 mQ+75 μl honey) was applied to the wound using a micropipette with disposable tips. The animal was kept immobilized until the inoculum had completely dried. […]
vehicle: methocel 0.5%, Tween 80® (polysorbate 80), demineralised water reference compound: itraconazole at 6.25 mg/ml test compounds: prepared at 25 mg/ml, subsequently further diluted
Oral treatment (gavage 0.16 ml/100 g once daily) was started about 2 hours before infection and continued once daily for 7 consecutive days. The animals were weighed after 3 days of treatment to adjust for the dose.
Developments of lesions were evaluated following the semi-quantitative lesion scoring system (see Table 6) on days 3, 5, 7, 10, 12, 14, 17 and 20. The results are show in Table 7 (“DPI” means days post infection). Reported values in Table 7 are mean values.

Row | IC50 [1] [nM] | IC50 [2] [nM] | IC50 (Microsporum canis B68128) [nM] | IC50 [3] [nM] | IC50 [4] [nM] | IC50 [5] [nM] | IC50 [6] [nM] | SMILES | pIC50 Inf. C [1] | pIC50 Inf. D [2] | pIC50 Inf. B (Microsporum canis B68128) | pIC50 Inf. E [3] | pIC50 Inf. F [4] | pIC50 Inf. A [5] | pIC50 Inf. G [6] | also measured
1 | 7940 | 2950 | 8130 | 7940 | 5750 | 7940 | 8130 | CC(F)(F)c1cc(C2=NCc3ccc(Cl)cc3-n3cccc32)ccc1F [Compound 34, 9-chloro-4-[3-(1,1-difluoroethyl)-4-fluorophenyl]-6H-pyrrolo[1,2-a][1,4]benzodiazepine] |  |  |  |  |  |  |  | 
2 | 42.7 | 631 | 490 | 224 | > 64600 | > 64600 | 251 | CC(F)(F)c1ccc(C2=NCc3c(F)cccc3-n3cccc32)cc1 [Compound 15, 4-[4-(1,1-difluoroethyl)phenyl]-7-fluoro-6H-pyrrolo[1,2-a][1,4]benzodiazepine] |  |  |  |  |  |  |  | IC50 (Rhizopus oryzae IHEM5223): 33900 nM; IC50 [7]: 2510 nM; IC50 [8]: > 64600 nM; IC50 [9]: > 64600 nM; IC50 [10]: > 64600 nM
3 |  |  |  |  |  |  |  | CC(F)(F)c1ccc(C2NCc3cc(Cl)cc(Cl)c3-n3cccc32)cc1.Cl (stereo not shown) [Compound 5, 8,10-dichloro-4-[4-(1,1-difluoroethyl)phenyl]-5,6-dihydro-4H-pyrrolo[1,2-a][1,4]-benzodiazepine.HCl] | 4.22 | <4.19 | <4.19 | <4.19 | 4.46 | <4.19 | <4.19 | 
4 |  |  |  |  |  |  |  | CC(F)(F)c1ccc(C2NCc3c(Cl)ccc(Cl)c3-n3cccc32)cc1.Cl (stereo not shown) [Compound 11, 7,10-dichloro-4-[4-(1,1-difluoroethyl)phenyl]-5,6-dihydro-4H-pyrrolo[1,2-a][1,4]-benzodiazepine.HCl] | 4.86 | <4.19 | <4.19 | <4.19 | <4.19 | <4.19 | <4.19 | 
5 | 148 | 2340 | 2140 | 501 | 1620 | 8130 | 1100 | CC(F)(F)c1ccc(C2=NCc3c(F)cc(F)cc3-n3cccc32)cc1 [Compound 18, 4-[4-(1,1-difluoroethyl)phenyl]-7,9-difluoro-6H-pyrrolo[1,2-a][1,4]benzodiazepine] |  |  |  |  |  |  |  | IC50 (Rhizopus oryzae IHEM5223): > 64600 nM; IC50 [7]: 794 nM; IC50 [8]: > 64600 nM; IC50 [9]: 50100 nM; IC50 [10]: > 64600 nM
6 |  |  |  |  |  |  |  | CCC(C)n1ncn(-c2ccc(N3CCN(c4ccc(OCC5COC(Cn6cncn6)(c6ccc(Cl)cc6Cl)O5)cc4)CC3)cc2)c1=O (stereo not shown) [Itraconazole, reference compound] |  |  |  |  |  |  |  | semi-quantitative lesion score (mean) ([11]; 3 DPI): 0; semi-quantitative lesion score (mean) ([11]; 5 DPI): 0; semi-quantitative lesion score (mean) ([11]; 7 DPI): 0; semi-quantitative lesion score (mean) ([11]; 10 DPI): 0; semi-quantitative lesion score (mean) ([11]; 12 DPI): 0; semi-quantitative lesion score (mean) ([11]; 14 DPI): 0; semi-quantitative lesion score (mean) ([11]; 17 DPI): 0; semi-quantitative lesion score (mean) ([11]; 20 DPI): 0
7 | 302 | 14800 | 525 | 1450 | 525 | 4270 | 1580 | CC(F)(F)c1cc(C2=NCc3cccc(Cl)c3-n3cccc32)ccc1F [Compound 35, 10-chloro-4-[3-(1,1-difluoroethyl)-4-fluorophenyl]-6H-pyrrolo[1,2-a][1,4]-benzodiazepine] |  |  |  |  |  |  |  | 
8 |  |  |  |  |  |  |  | CC(F)(F)c1ccc(C2NCc3c(ccc(Cl)c3Cl)-n3cccc32)cc1.Cl (stereo not shown) [Compound 7, 7,8-dichloro-4-[4-(1,1-difluoroethyl)phenyl]-5,6-dihydro-4H-pyrrolo[1,2-a][1,4]-benzodiazepine.HCl] | 5.40 | <4.19 | 5.40 | <4.19 | <4.19 | <4.19 | <4.19 | 
9 | > 64600 | > 64600 | > 64600 | > 64600 | > 64600 | > 64600 | > 64600 | CC(F)(F)c1ccc(C2=NCc3c(ccc(Cl)c3Cl)-n3cccc32)cc1 [Compound 10, 7,8-dichloro-4-[4-(1,1-difluoroethyl)phenyl]-6H-pyrrolo[1,2-a][1,4]benzodiazepine] |  |  |  |  |  |  |  | 
10 |  |  |  |  |  |  |  | CC(F)(F)c1ccc(C2NCc3c(Cl)cc(Cl)cc3-n3cccc32)cc1.Cl (stereo not shown) [Compound 13, 7,9-dichloro-4-[4-(1,1-difluoroethyl)phenyl]-5,6-dihydro-4H-pyrrolo[1,2-a][1,4]-benzodiazepine.HCl] | 5.70 | <4.19 | 4.23 | 4.81 | <4.19 | <4.19 | 5.14 | 
11 |  |  |  |  |  |  |  | CC(F)(F)c1ccc([C@H]2NCc3c(Cl)cccc3-n3cccc32)cc1 (single isomer, unassigned) [Compound 3] |  |  |  |  |  |  |  | IC50 (Rhizopus oryzae IHEM5223): > 64600 nM; IC50 [7]: 708 nM
12 |  |  |  |  |  |  |  | CC(F)(F)c1ccc(C2NCc3c(Cl)cccc3-n3cccc32)cc1.Cl (stereo not shown) [Compound 1, 7-chloro-4-[4-(1,1-difluoroethyl)phenyl]-5,6-dihydro-4H-pyrrolo[1,2-a][1,4]-benzodiazepine.HCl] | 6.91 | 5.70 | 6.45 | 6.72 | 5.30 | 4.68 | 6.89 | pIC50 Inf. J (Rhizopus oryzae IHEM5223): <4.19; pIC50 Inf. H ([8]; Scedosporium apiospermum IHEM3817): <4.19; pIC50 Inf. K ([9]; Rhizomucor miehei IHEM13391): <4.19; IC50 [10]: > 64600 nM
